From patent publication US10150728B2, “Alkylene derivatives” (Shionogi & Co., Ltd., priority 2013, dated 2018)
pIC50: −log10 of the molar value.

Target: recombinant human ACC2 (Homo sapiens (Human), UniProt O00763)
Experiment: Measurement of inhibitory activity on human ACC2 (MALDI-TOF MS, acetyl CoA to malonyl CoA conversion)
Type: biochemical
Conditions: Tables 155-159
In short: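 His-tagged human ACC2 (residues 27–2458) from baculovirus-infected Sf-9 cells was preincubated 1 h in pH 7.4 HEPES-KOH buffer with MgCl2, 6-10 mM potassium citrate, glutathione and BSA. Substrate solution held 1 mM ATP, 0.8 mM acetyl CoA and 25-50 mM bicarbonate. After 1–3 h at room temperature, malonyl CoA/(malonyl+acetyl CoA) was read by negative-mode MALDI-TOF MS; citrate, bicarbonate and time varied by enzyme lot.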

Chain of recombinant human ACC2 (O00763 27-2458): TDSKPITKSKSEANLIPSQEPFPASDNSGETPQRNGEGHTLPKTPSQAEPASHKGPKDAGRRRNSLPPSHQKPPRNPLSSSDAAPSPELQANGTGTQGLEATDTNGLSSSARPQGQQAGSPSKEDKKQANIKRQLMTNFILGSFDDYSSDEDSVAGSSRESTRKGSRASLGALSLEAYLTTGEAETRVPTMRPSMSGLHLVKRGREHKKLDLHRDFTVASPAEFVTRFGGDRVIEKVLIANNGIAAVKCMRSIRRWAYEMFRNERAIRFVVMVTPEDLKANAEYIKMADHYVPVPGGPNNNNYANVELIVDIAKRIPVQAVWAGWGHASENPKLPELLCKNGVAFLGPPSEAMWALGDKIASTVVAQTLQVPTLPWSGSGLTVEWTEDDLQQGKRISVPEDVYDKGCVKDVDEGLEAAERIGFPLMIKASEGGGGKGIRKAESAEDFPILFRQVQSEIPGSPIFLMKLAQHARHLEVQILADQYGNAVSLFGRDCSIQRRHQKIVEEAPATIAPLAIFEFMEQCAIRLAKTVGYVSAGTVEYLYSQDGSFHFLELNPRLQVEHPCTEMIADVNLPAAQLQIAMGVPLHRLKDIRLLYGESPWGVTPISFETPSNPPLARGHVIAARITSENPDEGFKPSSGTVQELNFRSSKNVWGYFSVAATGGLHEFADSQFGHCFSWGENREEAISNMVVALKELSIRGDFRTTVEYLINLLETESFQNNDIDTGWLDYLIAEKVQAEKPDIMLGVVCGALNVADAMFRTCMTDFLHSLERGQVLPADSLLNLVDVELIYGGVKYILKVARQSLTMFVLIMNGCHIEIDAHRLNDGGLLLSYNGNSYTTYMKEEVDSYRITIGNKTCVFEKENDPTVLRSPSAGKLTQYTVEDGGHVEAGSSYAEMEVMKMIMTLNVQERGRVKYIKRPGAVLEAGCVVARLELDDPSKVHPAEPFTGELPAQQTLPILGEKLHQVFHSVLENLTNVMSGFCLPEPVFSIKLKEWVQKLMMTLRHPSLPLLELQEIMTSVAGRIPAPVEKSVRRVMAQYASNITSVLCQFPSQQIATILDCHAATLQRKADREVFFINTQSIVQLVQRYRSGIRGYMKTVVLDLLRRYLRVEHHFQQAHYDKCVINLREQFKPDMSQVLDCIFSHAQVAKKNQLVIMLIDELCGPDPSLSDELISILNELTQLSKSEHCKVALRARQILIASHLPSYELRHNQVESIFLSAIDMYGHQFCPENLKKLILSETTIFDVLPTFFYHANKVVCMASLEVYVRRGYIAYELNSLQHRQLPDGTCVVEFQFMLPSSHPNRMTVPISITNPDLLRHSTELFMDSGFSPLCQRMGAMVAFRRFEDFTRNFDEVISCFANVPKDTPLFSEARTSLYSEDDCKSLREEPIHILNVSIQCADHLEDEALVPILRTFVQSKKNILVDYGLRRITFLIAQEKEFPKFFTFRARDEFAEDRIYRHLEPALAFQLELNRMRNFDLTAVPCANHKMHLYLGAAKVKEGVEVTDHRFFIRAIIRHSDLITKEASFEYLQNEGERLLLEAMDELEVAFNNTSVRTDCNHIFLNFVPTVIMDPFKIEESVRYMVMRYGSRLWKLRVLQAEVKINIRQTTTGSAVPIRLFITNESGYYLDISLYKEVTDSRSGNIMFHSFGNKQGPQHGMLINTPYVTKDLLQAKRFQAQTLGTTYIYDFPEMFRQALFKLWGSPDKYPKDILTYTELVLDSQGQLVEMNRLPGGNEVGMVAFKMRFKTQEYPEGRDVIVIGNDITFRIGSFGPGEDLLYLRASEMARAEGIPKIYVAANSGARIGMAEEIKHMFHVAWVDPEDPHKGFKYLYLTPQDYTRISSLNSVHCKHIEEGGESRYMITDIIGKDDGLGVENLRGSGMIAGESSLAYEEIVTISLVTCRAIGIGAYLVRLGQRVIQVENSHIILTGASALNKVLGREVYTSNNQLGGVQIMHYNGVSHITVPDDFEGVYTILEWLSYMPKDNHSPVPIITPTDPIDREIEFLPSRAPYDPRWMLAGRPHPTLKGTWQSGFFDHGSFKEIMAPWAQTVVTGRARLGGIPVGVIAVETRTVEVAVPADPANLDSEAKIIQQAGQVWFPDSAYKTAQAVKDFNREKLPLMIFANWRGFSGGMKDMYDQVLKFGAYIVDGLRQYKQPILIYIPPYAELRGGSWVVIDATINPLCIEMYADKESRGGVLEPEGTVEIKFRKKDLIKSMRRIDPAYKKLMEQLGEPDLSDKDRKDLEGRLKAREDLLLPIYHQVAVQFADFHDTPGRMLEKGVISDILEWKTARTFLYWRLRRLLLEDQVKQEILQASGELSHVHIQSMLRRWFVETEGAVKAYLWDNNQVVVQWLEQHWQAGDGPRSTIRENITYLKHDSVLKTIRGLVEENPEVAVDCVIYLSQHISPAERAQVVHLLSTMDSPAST

Row | Structure (SMILES) | pIC50
1 | CC(=O)N[C@@H](C)CO[C@H]1C[C@H](COc2ncnc(C3=CCCCC3)c2C)C1 [Compound I-419] | 6.96
2 | COc1ccc(-c2ncnc(OC[C@H]3C[C@H](OC[C@H](C)NC(C)=O)C3)c2C)cc1 [Compound I-420] | 6.35
3 | CC(=O)N[C@@H](C)CO[C@H]1C[C@H](COc2ncnc(OCC3CC3)c2C)C1 [Compound I-421] | 7.62
4 | CC(=O)N[C@@H](C)CO[C@H]1C[C@H](COc2nccc(OC3CC(F)(F)C3)c2Cl)C1 [Compound I-422] | 6.45
5 | CC(=O)N[C@@H](C)CO[C@H]1C[C@H](COc2nsc3ccccc23)C1 [Compound I-424] | 6.91
6 | CC(=O)N[C@@H](C)CO[C@H]1C[C@H](COc2ncnc3c2c(I)cn3CC2CC2)C1 [Compound I-425] | 6.77
7 | CC(=O)N[C@@H](C)CO[C@H]1C[C@H](COc2ncnc3c2c(C)cn3CC2CC2)C1 [Compound I-426] | 7.24
8 | CC(=O)N[C@@H](C)CO[C@H]1C[C@H](COc2ncnc3c2c(C#N)cn3CC2CC2)C1 [Compound I-427] | 6.57
9 | CC(=O)N[C@@H](C)CO[C@H]1C[C@H](COc2nccc3c2cnn3CC2CCC2)C1 [Compound I-428] | 7.28
10 | CC(=O)N[C@@H](C)CO[C@H]1C[C@H](COc2ncnc(COc3ccccc3)c2Cl)C1 [Compound I-429] | 7.59
11 | CC(=O)N[C@@H](C)CO[C@H]1C[C@H](COc2ncnc3c2ccn3Cc2ccccc2)C1 [Compound I-430] | 7.92
12 | CC(=O)N[C@@H](C)CO[C@H]1C[C@H](COc2ncnc(OCc3ncco3)c2Cl)C1 [Compound I-431] | 6.09
13 | CC(=O)N[C@@H](C)CO[C@H]1C[C@H](COc2ncnc3c2ccn3Cc2ccccn2)C1 [Compound I-432] | 6.23
14 | CC(=O)N[C@@H](C)CO[C@H]1C[C@H](COc2nccc(NC(=O)C3CCCCC3)c2Cl)C1 [Compound I-433] | 7.96
15 | CC(=O)N[C@@H](C)CO[C@H]1C[C@H](COc2ncnc3c2ccn3Cc2cccnc2)C1 [Compound I-434] | 6.19
16 | CC(=O)N[C@@H](C)CO[C@H]1C[C@H](COc2ncnc(OCc3ccccn3)c2Cl)C1 [Compound I-435] | 8.15
17 | CC(=O)N[C@@H](C)CO[C@H]1C[C@@H](COc2ncnc(OCc3ccccn3)c2Cl)C1 [Compound I-436] | 8.40
18 | CC(=O)N[C@@H](C)CO[C@H]1C[C@H](COc2ncnc(OCc3cc(C(F)(F)F)ccn3)c2Cl)C1 [Compound I-437] | 7.72
19 | CC(=O)N[C@@H](C)CO[C@H]1C[C@H](COc2ncnc(OCc3ncc(Cl)s3)c2Cl)C1 [Compound I-439] | 8.40
20 | CC(=O)N[C@@H](C)CO[C@H]1C[C@H](COc2ncnc3c2c(F)cn3CC2CC2(F)F)C1 (some centres unmarked) [Compound I-440] | 7.72
21 | CC(=O)N[C@@H](C)CO[C@H]1C[C@H](COc2ncnc(OCc3ncc(F)s3)c2Cl)C1 [Compound I-441] | 7.92
22 | CC(=O)N[C@@H](C)CO[C@H]1C[C@H](Oc2nccc3c(OCC4CC4)nccc23)C1 [Compound I-442] | 7.46
23 | CC(=O)N[C@@H](C)CO[C@H]1C[C@H](COc2ncnc(OCc3nnc(C(F)(F)F)s3)c2Cl)C1 [Compound I-443] | 6.62
24 | CC(=O)N[C@@H](C)CO[C@H]1C[C@H](COc2ncnc3c2ccn3CCC2CC2)C1 [Compound I-444] | 7.29

Row | Structure (SMILES) | pIC50
25 | CC(=O)N[C@@H](C)CO[C@H]1C[C@H](Oc2nccc3c(OCc4ccccc4)nccc23)C1 [Compound I-445] | 7.85
26 | CC(=O)N[C@@H](C)CO[C@H]1CC[C@H](Oc2ncnc(OCc3ccc(F)cn3)c2Cl)CC1 [Compound I-446] | 7.11
27 | CC(=O)N[C@@H](C)CO[C@H]1C[C@H](COc2nc(C)nc3c2ccn3CC2CC2)C1 [Compound I-447] | 7.12
28 | CC(=O)N[C@@H](C)CO[C@H]1C[C@H](COc2ncnc3c2ccn3-c2ccccc2)C1 [Compound I-448] | 6.40
29 | CC(=O)N[C@@H](C)CO[C@H]1C[C@H](COc2ncnc3c2ccn3CC2CCCCC2)C1 [Compound I-449] | 7.29
30 | CC(=O)N[C@@H](C)CO[C@H]1C[C@H](COc2ncnc3c2c(F)cn3CC2CC2)C1 [Compound I-450] | 7.85
31 | CC(=O)N[C@@H](C)CO[C@H]1C[C@H](COc2ncnc3c2ccn3C2CCCCC2)C1 [Compound I-451] | 7.40
32 | CC(=O)N[C@@H](C)CO[C@H]1C[C@H](COc2ncnc(NC(=O)c3ccccc3)c2Cl)C1 [Compound I-452] | 6.96
33 | CCn1ccc2c(OC[C@H]3C[C@H](OC[C@H](C)NC(C)=O)C3)ncnc21 [Compound I-453] | 6.21
34 | CC(=O)N[C@@H](C)CO[C@H]1C[C@H](COc2ncnc3c2cc(C)n3CC2CC2)C1 [Compound I-454] | 7.06
35 | CC(=O)N[C@@H](C)CO[C@H]1CC[C@H](Oc2ncnc(OCc3ncc(Cl)s3)c2Cl)CC1 [Compound I-455] | 7.30
36 | CC(=O)N[C@@H](C)CO[C@H]1C[C@H](c2nc3cnc(OCc4ccccc4)cc3o2)C1 [Compound I-456] | 6.55
37 | CC(=O)N[C@@H](C)CO[C@]1(C)C[C@@H](COc2ncnc(OCc3ccc(F)cn3)c2Cl)C1 [Compound I-457] | 7.72
38 | CC(=O)N[C@@H](C)CO[C@H]1C[C@H](COc2nccc3c2CCN3CC2CC2)C1 [Compound I-458] | 7.49
39 | CC(=O)N[C@@H](C)CO[C@H]1C[C@H](COc2ncnc(OCc3ccc(F)cn3)c2F)C1 [Compound I-459] | 7.80
40 | CC(=O)N[C@@H](C)CO[C@H]1C[C@H](COc2ncnc(OCc3cc(Cl)ccn3)c2F)C1 [Compound I-460] | 8.40
41 | CC(=O)N[C@@H](C)CO[C@H]1C[C@H](COc2ncnc(OCc3ccc(F)cc3)c2F)C1 [Compound I-461] | 8.40
42 | CC(=O)N[C@@H](C)CO[C@H]1C[C@H](COc2ncnc(-c3nc4ccccc4o3)c2Cl)C1 [Compound I-462] | 7.05
43 | CC(=O)N[C@@H](C)CO[C@H]1C[C@H](COc2ncnc(OCC3CCCCO3)c2Cl)C1 (some centres unmarked) [Compound I-463] | 7.77
44 | CC(=O)N[C@@H](C)CO[C@H]1C[C@H](COc2ncnc(OCc3cncs3)c2Cl)C1 [Compound I-464] | 7.44
45 | CC(=O)N[C@@H](C)CO[C@H]1C[C@H](COc2nccc3c2cnn3CC2CC2(F)F)C1 (some centres unmarked) [Compound I-465] | 6.80
46 | CC(=O)N[C@@H](C)CO[C@H]1C[C@H](COc2ncnc(OC3(c4ccccc4)CC3)c2Cl)C1 [Compound I-466] | 6.75
47 | CC(=O)N[C@@H](C)CO[C@H]1C[C@H](COc2ncnc(OCc3ccc(Cl)cn3)c2F)C1 [Compound I-467] | 8.15
48 | CC(=O)N[C@@H](C)CO[C@H]1C[C@H](COc2ncnc(NC(=O)C3CCCCC3)c2Cl)C1 [Compound I-468] | 6.43

Row | Structure (SMILES) | pIC50
49 | CC(=O)N[C@@H](C)CO[C@H]1C[C@H](Cn2ccc3c(OCc4ccccc4)ncnc32)C1 [Compound I-469] | 6.22
50 | CC(=O)N[C@@H](C)CO[C@H]1C[C@H](Cn2ccc3c(OCc4cc(Cl)ccn4)ncnc32)C1 [Compound I-470] | 6.37
51 | CC(=O)N[C@@H](C)CO[C@H]1C[C@H](COc2ncnc3c2ccn3C(C)C)C1 [Compound I-471] | 6.80
52 | CC(=O)N[C@@H](C)CO[C@H]1C[C@H](COc2ncnc3c2ccn3Cc2ccccc2F)C1 [Compound I-472] | 7.59
53 | CC(=O)N[C@@H](C)CO[C@H]1C[C@H](COc2ncnc3c2ccn3Cc2cccc(F)c2)C1 [Compound I-473] | 7.55
54 | CC(=O)N[C@@H](C)CO[C@H]1C[C@H](COc2ncnc3c2ccn3Cc2ccc(F)cc2)C1 [Compound I-474] | 7.80
55 | CC(=O)N[C@@H](C)CO[C@H]1C[C@H](COc2ccc3nc(OC4CC4)n(C)c3n2)C1 [Compound I-475] | 6.27
56 | CC(=O)N[C@@H](C)CO[C@H]1C[C@H](COc2ccc3nc(OCC4CC4)n(C)c3n2)C1 [Compound I-476] | 7.13
57 | CC(=O)N[C@@H](C)CO[C@H]1C[C@H](COc2ccc3nc(OCC4CC4(F)F)n(C)c3n2)C1 (some centres unmarked) [Compound I-477] | 6.61
58 | CC(=O)N[C@@H](C)CO[C@H]1C[C@H](COc2ccc3nc(OC4CC(F)(F)C4)n(C)c3n2)C1 [Compound I-478] | 6.94
59 | CCOc1nc2ccc(OC[C@H]3C[C@H](OC[C@H](C)NC(C)=O)C3)nc2n1CC [Compound I-479] | 6.25
60 | CC(=O)N[C@@H](C)CO[C@H]1C[C@H](COc2ccc3nc(OCc4ccccc4)n(C)c3n2)C1 [Compound I-480] | 7.39
61 | CC(=O)N[C@@H](C)CO[C@H]1C[C@H](COc2ccc3nc(Oc4ccccc4)n(C)c3n2)C1 [Compound I-481] | 6.53
62 | CC(=O)N[C@@H](C)CO[C@H]1C[C@H](COc2ccc3nc(OCCC(C)C)n(C)c3n2)C1 [Compound I-482] | 7.06
63 | CCCOc1nc2ccc(OC[C@H]3C[C@H](OC[C@H](C)NC(C)=O)C3)nc2n1C [Compound I-483] | 7.09
64 | CC(=O)N[C@@H](C)CO[C@H]1C[C@H](COc2ccc3nc(OCC(F)F)n(C)c3n2)C1 [Compound I-484] | 6.69
65 | CC(=O)N[C@@H](C)CO[C@H]1C[C@H](COc2ccc3nc(OC[C@H](C)F)n(C)c3n2)C1 [Compound I-485] | 6.74
66 | CC(=O)N[C@@H](C)CO[C@H]1C[C@H](COc2cc(C)c3nc(OCC4CC4)n(C)c3n2)C1 [Compound I-486] | 6.14
67 | CCOc1nc2ccc(OC[C@H]3C[C@H](OC[C@H](C)NC(C)=O)C3)c(F)c2n1C [Compound I-487] | 6.44
68 | CCOc1nc2cc(Cl)c(OC[C@H]3C[C@H](OC[C@H](C)NC(C)=O)C3)nc2n1C [Compound I-488] | 6.50
69 | CC(=O)N[C@@H](C)CO[C@H]1C[C@H](COc2ccc3nc(OCC4CC4)n(C)c3c2)C1 [Compound I-489] | 6.07
70 | CCOc1nc2ccc(OC[C@H]3C[C@H](OC[C@H](C)NC(C)=O)C3)c(Cl)c2n1C [Compound I-490] | 6.32
71 | CCOc1nc2ccc(O[C@H]3CC[C@H](OC[C@H](C)NC(C)=O)CC3)nc2n1C [Compound I-491] | 7.29
